Data from patent US8541572B2.

Tested on: TNF-α production in LPS-stimulated human whole blood
Experiment: Inhibition of TNF-α production from human whole blood (hWBA)
Format: cell-based
Conditions: Homo sapiens, IC50 for TNF-α production, LPS-stimulated human whole blood; read-out: hWBA

IC50 [nM]	SMILES
432	COc1ccc2c(c1)C(=O)N(C[C@@]1(C#Cc3cncc(C(=O)NN)c3)NC(=O)NC1=O)C2 [Compound 2255]
1000	COc1ccc2c(c1)C(=O)N(C[C@]1(C#Cc3cncc(C(=O)NN)c3)NC(=O)NC1=O)C2 [Compound 2256]
490	COc1ccc2c(c1)C(=O)N(C[C@@]1(C#Cc3ccc(C4(C)NC(=O)NC4=O)cc3C)NC(=O)NC1=O)C2 (stereo partly drawn) [Compound 2257]
517	COc1ccc2c(c1)C(=O)N(C[C@@]1(C#Cc3ccc(C(C)(C)C(N)=O)cc3)NC(=O)NC1=O)C2 [Compound 2262]
927	COc1ccc2c(c1)C(=O)N(C[C@@]1(C#Cc3cccnc3-c3cn[nH]c3)NC(=O)NC1=O)C2 [Compound 2266]
2110	COc1ccc2c(c1)C(=O)N(C[C@@]1(C#Cc3cccnc3-c3cccnc3)NC(=O)NC1=O)C2 [Compound 2270]
1000	COc1ccc2c(c1)C(=O)N(C[C@@]1(C#Cc3ccc(CC4(C)NC(=O)NC4=O)cc3)NC(=O)NC1=O)C2 (stereo partly drawn) [Compound 2281]
379	COC(=O)Cc1ccc(C#C[C@]2(CN3Cc4ccc(OC)cc4C3=O)NC(=O)NC2=O)cc1 [Compound 2284]
1230	COc1ccc2c(c1)C(=O)N(CC1(C#Cc3cccnc3N3CCN(C)CC3)NC(=O)NC1=O)C2 (stereo not drawn) [Compound 2285]
2000	COc1ccc2c(c1)C(=O)N(CC1(C#Cc3cccnc3NCCN(C)C)NC(=O)NC1=O)C2 (stereo not drawn) [Compound 2286]
633	COc1ccc2c(c1)C(=O)N(C[C@@]1(C#Cc3cccnc3N3CCOCC3)NC(=O)NC1=O)C2 [Compound 2287]
1390	COc1ccc2c(c1)C(=O)N(C[C@@]1(C#Cc3ccc(N4CCCCC4=O)cc3)NC(=O)NC1=O)C2 [Compound 2295]
236	COc1ccc2c(c1)C(=O)N(C[C@@]1(C#Cc3ccc(-c4cn[nH]c4N)cc3)NC(=O)NC1=O)C2 [Compound 2296]
348	COc1ccc2c(c1)C(=O)N(C[C@@]1(C#Cc3ccc(N4CCC5(CC4)NC(=O)NC5=O)nc3)NC(=O)NC1=O)C2 [Compound 2311]

Same assay, conditions: Homo sapiens, IC50 for inhibition of TNF-α production, LPS-stimulated human whole blood; read-out: hWBA

IC50 [nM]	SMILES
1200	COc1ccc2c(c1)C(=O)N(C[C@@]1(C#Cc3ccc(C(c4ccc[nH]4)c4ccc[nH]4)cc3)NC(=O)NC1=O)C2 [Compound 2201]
1600	COc1ccc2c(c1)C(=O)N(C[C@@]1(C#Cc3cnc(N)nc3N)NC(=O)NC1=O)C2 [Compound 2209]
776	COc1ccc2c(c1)C(=O)N(C[C@@]1(C#Cc3cncc(-c4ccc(C(N)=O)o4)c3)NC(=O)NC1=O)C2 [Compound 2213]
8900	COc1ccc2c(c1)C(=O)N(C[C@@]1(C#Cc3cnc4ccccc4c3CO)NC(=O)NC1=O)C2 [Compound 2219]
417	COc1ccc2c(c1)C(=O)N(C[C@@]1(C#Cc3cc(C(N)=O)ccc3C)NC(=O)NC1=O)C2 [Compound 2220]
930	COc1ccc2c(c1)C(=O)N(C[C@@]1(C#Cc3ccc(CCNC(=O)C(F)(F)F)s3)NC(=O)NC1=O)C2 [Compound 2221]
10000	COc1ccc2c(c1)C(=O)N(C[C@@]1(C#Cc3cc(Br)ccc3O)NC(=O)NC1=O)C2 [Compound 2229]
1000	COc1ccc2c(c1)C(=O)N(C[C@@]1(C#Cc3ccc(OC)nc3OC)NC(=O)NC1=O)C2 [Compound 2230]
1130	COc1ccc2c(c1)C(=O)N(C[C@@]1(C#Cc3cnc(C)nc3O)NC(=O)NC1=O)C2 [Compound 2231]
678	COc1ccc2c(c1)C(=O)N(C[C@@]1(C#Cc3cncc(-c4cc[nH]n4)c3)NC(=O)NC1=O)C2 [Compound 2234]

Same assay, conditions: IC50 for TNF-α production, LPS-stimulated human whole blood; read-out: hWBA

IC50 [nM]	SMILES
713	COc1ccc2c(c1)C(=O)N(C[C@@]1(C#Cc3cncc(-c4noc(C(N)=O)n4)c3)NC(=O)NC1=O)C2 [Compound 2254]
227	COc1ccc2c(c1)C(=O)N(C[C@@]1(C#Cc3ccc(C4(C(N)=O)CC4)cc3)NC(=O)NC1=O)C2 [Compound 2260]
443	CNC(=O)C1(c2ccc(C#C[C@]3(CN4Cc5ccc(OC)cc5C4=O)NC(=O)NC3=O)cc2)CC1 [Compound 2261]
2540	COc1ccc2c(c1)C(=O)N(C[C@@]1(C#Cc3cccnc3-c3c(C)nn(C)c3C)NC(=O)NC1=O)C2 [Compound 2264]
566	COC(=O)C(c1ccc(C#C[C@]2(CN3Cc4ccc(OC)cc4C3=O)NC(=O)NC2=O)cc1)N1CCCNCC1 (stereo partly drawn) [Compound 2271]
419	COc1ccc2c(c1)C(=O)N(C[C@@]1(C#Cc3ccc(NCCN(C)C)nc3)NC(=O)NC1=O)C2 [Compound 2289]
1590	COc1ccc2c(c1)C(=O)N(C[C@@]1(C#Cc3cccnc3-c3cncnc3)NC(=O)NC1=O)C2 [Compound 2290]
2260	COc1ccc2c(c1)C(=O)N(C[C@@]1(C#Cc3cccnc3-c3ccncc3)NC(=O)NC1=O)C2 [Compound 2291]
372	COc1ccc2c(c1)C(=O)N(C[C@@]1(C#Cc3ccc(-c4cn[nH]c4)nc3)NC(=O)NC1=O)C2 [Compound 2292]
84	COc1ccc2c(c1)C(=O)N(C[C@@]1(C#Cc3ccc(C(=NO)N4CCNC[C@@H]4C)cc3)NC(=O)NC1=O)C2 [Compound 2293]
327	COc1ccc2c(c1)C(=O)N(C[C@@]1(C#Cc3ccc(C(=NO)N4[C@H](C)CNC[C@@H]4C)cc3)NC(=O)NC1=O)C2 [Compound 2294]
557	COc1ccc2c(c1)C(=O)N(CC1(C#Cc3cnc(N4CCC5(CC4)NC(=O)NC5=O)nc3N)NC(=O)NC1=O)C2 (stereo not drawn) [Compound 2310]
335	CCN1CCN(C(=NO)c2ccc(C#C[C@]3(CN4CCc5cc(OC)ccc5C4=O)NC(=O)NC3=O)cc2)CC1 [Compound 2316]
639	COc1ccc2c(c1)CCN(C[C@@]1(C#Cc3ccc(C(=NO)N4CCCN(C)CC4)cc3)NC(=O)NC1=O)C2=O [Compound 2317]
10000	COc1ccc2c(c1)C(=O)N(C[C@@]1(C#Cc3cccnc3)NC(=O)NC1=O)CC2 [Compound 2318]
1060	COc1ccc2c(c1)CCN(C[C@@]1(C#Cc3ccc(C(=NO)N4CCOCC4)cc3)NC(=O)NC1=O)C2=O [Compound 2319]
261	COc1ccc2c(c1)CCN(C[C@@]1(C#Cc3ccc(C(=NO)N4CCN(C)CC4)cc3)NC(=O)NC1=O)C2=O [Compound 2320]
1100	COc1ccc2c(c1)CCN(C[C@@]1(C#Cc3ccc4c(c3)CCCC43NC(=O)NC3=O)NC(=O)NC1=O)C2=O (stereo partly drawn) [Compound 2321]

Same assay, conditions: IC50 for inhibition of TNF-α production, LPS-stimulated human whole blood; read-out: hWBA

IC50 [nM]	SMILES
219	COc1ccc2c(c1)C(=O)N(C[C@@]1(C#Cc3ccc(CCN)cc3)NC(=O)NC1=O)C2 [Compound 2202]
7270	COc1ccc2c(c1)C(=O)N(C[C@@]1(C#Cc3nc(N4CCN(c5ccncc5)CC4)ccc3OC)NC(=O)NC1=O)C2 [Compound 2205]
260	COc1ccc2c(c1)C(=O)N(C[C@@]1(C#Cc3cncc(-c4cn[nH]c4)c3)NC(=O)NC1=O)C2 [Compound 2207]
361	COc1ccc2c(c1)C(=O)N(C[C@@]1(C#Cc3cncc(-c4ccc(C(N)=O)cc4)c3)NC(=O)NC1=O)C2 [Compound 2208]
1010	COc1ccc2c(c1)C(=O)N(C[C@@]1(C#Cc3cnc(N4CCC(=O)CC4)nc3N)NC(=O)NC1=O)C2 [Compound 2210]
1000	COc1ccc2c(c1)C(=O)N(C[C@@]1(C#Cc3ccc(N4CCC(=O)CC4)nc3)NC(=O)NC1=O)C2 [Compound 2211]
419	COc1ccc2c(c1)C(=O)N(C[C@@]1(C#Cc3ccc(C4(CN5Cc6cc(O)ccc6C5=O)NC(=O)NC4=O)cc3)NC(=O)NC1=O)C2 (stereo partly drawn) [Compound 2216]
849	COc1ccc2c(c1)C(=O)N(C[C@@]1(C#Cc3ccc([C@@]4(CN5Cc6ccc(OC)cc6C5=O)NC(=O)NC4=O)cc3)NC(=O)NC1=O)C2 [Compound 2217]
227	COc1ccc2c(c1)C(=O)N(C[C@@]1(C#Cc3ccc(C4=NCCN4)cc3)NC(=O)NC1=O)C2 [Compound 2222]
131	COc1ccc2c(c1)C(=O)N(C[C@@]1(C#Cc3ccc(-c4nnc[nH]4)cc3OC)NC(=O)NC1=O)C2 [Compound 2223]
1140	COc1ccc2c(c1)C(=O)N(C[C@@]1(C#Cc3ccc(-n4cncn4)cc3)NC(=O)NC1=O)C2 [Compound 2228]
699	COc1ccc2c(c1)C(=O)N(C[C@@]1(C#Cc3c(C)ncc(C(=O)O)c3O)NC(=O)NC1=O)C2 [Compound 2232]
811	COc1ccc2c(c1)C(=O)N(C[C@@]1(C#Cc3cncc(-c4csc(N)n4)c3)NC(=O)NC1=O)C2 [Compound 2233]
520	COc1ccc2c(c1)C(=O)N(C[C@@]1(C#Cc3ccc4[nH]nc(N)c4c3)NC(=O)NC1=O)C2 [Compound 2237]
422	CCN1CCN(c2n[nH]c3ccc(C#C[C@]4(CN5Cc6ccc(OC)cc6C5=O)NC(=O)NC4=O)cc23)CC1 [Compound 2238]
444	COc1ccc2c(c1)C(=O)N(C[C@@]1(C#Cc3cncc(NC(C)=O)c3)NC(=O)NC1=O)C2 [Compound 2242]
1230	CCOC(=O)Nc1cncc(C#C[C@]2(CN3Cc4ccc(OC)cc4C3=O)NC(=O)NC2=O)c1 [Compound 2243]
574	COc1ccc2c(c1)C(=O)N(C[C@@]1(C#Cc3cnc4nc(O)oc4c3)NC(=O)NC1=O)C2 [Compound 2244]
40	COc1ccc2c(c1)C(=O)N(C[C@@]1(C#Cc3ccc(C(=NO)C4CCN(C)CC4)cc3)NC(=O)NC1=O)C2 [Compound 2246]

Tested on: not listed separately
Experiment: Area under the curve determination of plasma levels in rats (rrAUC)
Format: in vivo
Conditions: rat, oral 10 mg/kg, plasma 0.5-6 h post-dosing; read-out: RR AUC

AUC [µM·h]	SMILES
2.6	COc1ccc2c(c1)C(=O)N(C[C@@]1(C#Cc3ccc(C(N)C(F)(F)F)cc3)NC(=O)NC1=O)C2 (stereo partly drawn) [Compound 300]
0.012	COc1ccc2c(c1)C(=O)N(C[C@@]1(C#Cc3ccc4c(c3)CN(C)C(=O)N4)NC(=O)NC1=O)C2 [Compound 306]
0.357	COc1ccc2c(c1)C(=O)N(C[C@@]1(C#Cc3ccc(-c4cc(N)n(C)n4)cc3)NC(=O)NC1=O)C2 [Compound 709]
0.012	COc1ccc2c(c1)C(=O)N(C[C@@]1(C#Cc3ccc4c(N)nn(C)c4c3)NC(=O)NC1=O)C2 [Compound 718]
0.082	COc1ccc2c(c1)C(=O)N(C[C@@]1(C#Cc3ccc4c(c3)c(N)nn4C)NC(=O)NC1=O)C2 [Compound 746]
